Laboratory results published in ChEMBL document CHEMBL5244218, “Quinolone derivatives and their activities against methicillin-resistant Staphylococcus aureus (MRSA)” (Eur J Med Chem, 2018).
Values after ≈ are worked out from the molar mass of the structure shown.

How the values were obtained:
Staphylococcus aureus [1] = assay: Antibacterial activity against methicillin-resistant Staphylococcus aureus assessed as inhibition of microbial growth; type: functional
Staphylococcus aureus [2] = assay: Antimicrobial activity against methicillin-resistant Staphylococcus aureus incubated for 18 hrs by Alamar blue staining based analysis; type: functional
Staphylococcus aureus [3] = assay: Antimicrobial activity against methicillin-resistant Staphylococcus aureus by agar dilution method; type: functional
Staphylococcus aureus [4] = assay: Bactericidal activity against methicillin-resistant Staphylococcus aureus assessed as inhibition of microbial growth; type: functional
Staphylococcus aureus [5] = assay: Antimicrobial activity against methicillin-resistant Staphylococcus aureus assessed as inhibition of microbial growth; type: functional
[6] = Cytotoxicity against human HEK293 cells incubated for 72 hrs by MTT assay; type: toxicity, cell-based
Staphylococcus aureus [7] = assay: Antibacterial activity against methicillin-resistant Staphylococcus aureus isolates by two fold dilution method; type: functional
Staphylococcus aureus [8] = assay: Potency index, ratio of ciprofloxacin MIC to test compound MIC for antimicrobial activity against methicillin-resistant Staphylococcus aureus; type: functional
Staphylococcus aureus [9] = assay: Antimicrobial activity against methicillin-resistant Staphylococcus aureus; type: functional, organism-based
Staphylococcus aureus [10] = assay: Antimicrobial activity against methicillin-resistant Staphylococcus aureus clinical isolate 1 measured after 18 hrs by agar dilution method; type: functional
Staphylococcus aureus [11] = assay: Antimicrobial activity against methicillin-resistant Staphylococcus aureus clinical isolate 2 measured after 18 hrs by agar dilution method; type: functional
Staphylococcus aureus [12] = assay: Potency index, ratio of norfloxacin MIC to test compound MIC for antimicrobial activity against methicillin-resistant Staphylococcus aureus clinical isolate 1; type: functional
Staphylococcus aureus [13] = assay: Potency index, ratio of ciprofloxacin MIC to test compound MIC for antimicrobial activity against methicillin-resistant Staphylococcus aureus clinical isolate 1; type: functional
Staphylococcus aureus [14] = assay: Potency index, ratio of ciprofloxacin MIC to test compound MIC for antimicrobial activity against methicillin-resistant Staphylococcus aureus clinical isolate 2; type: functional
Staphylococcus aureus [15] = assay: Potency index, ratio of norfloxacin MIC to test compound MIC for antimicrobial activity against methicillin-resistant Staphylococcus aureus clinical isolate 2; type: functional
Staphylococcus aureus [16] = assay: Potency index, ratio of norfloxacin MIC to test compound MIC for antimicrobial activity against methicillin-resistant Staphylococcus aureus; type: functional
Staphylococcus aureus [17] = assay: Antimicrobial activity against methicillin-resistant Staphylococcus aureus Mi300 by microbroth dilution method; type: functional
Staphylococcus aureus [18] = assay: Antimicrobial activity against methicillin-resistant Staphylococcus aureus Mi339 by microbroth dilution method; type: functional
Staphylococcus aureus [19] = assay: Antimicrobial activity against methicillin-resistant Staphylococcus aureus incubated for 18 hrs by Agar dilution method; type: functional
Staphylococcus aureus [20] = assay: Antimicrobial activity against methicillin-resistant Staphylococcus aureus isolates by agar dilution method; type: functional
Staphylococcus aureus [21] = assay: Antibacterial activity against methicillin-resistant Staphylococcus aureus; type: functional

## CC(=O)c1c(N2CC(CN)C(C)(C)C2)ccc2c(=O)c(C(=O)O)cn(C3CC3)c12 (centres undefined)
Staphylococcus aureus [1]
  MIC: 0.015 µg/mL

## COc1c(N2CC/C(=N/Oc3ccc(C)c(C)c3)C(N)C2)c(F)cc2c(=O)c(C(=O)O)cn(C3CC3)c12 (centres undefined)
Staphylococcus aureus [2]
  MIC: 0.008 µg/mL (≈ 0.0157 µM)

## CNCC1(C)CN(c2nc3c(cc2F)c(=O)c(C(=O)O)cn3C2CC2)CC/C1=N\OC (centres undefined)
Staphylococcus aureus [3]
  MIC: 64 µg/mL (≈ 148 µM)

## COc1ccc(O/N=C2/CCN(c3c(F)cc4c(=O)c(C(=O)O)cn(C5CC5)c4c3OC)CC2N)cc1 (centres undefined)
Staphylococcus aureus [2]
  MIC: 0.008 µg/mL (≈ 0.0157 µM)

## COc1cccc(O/N=C2/CCN(c3c(F)cc4c(=O)c(C(=O)O)cn(C5CC5)c4c3OC)CC2N)c1 (centres undefined)
Staphylococcus aureus [2]
  MIC: 0.008 µg/mL (≈ 0.0157 µM)

## COc1ccc(C(=O)N2CCN(C(=O)N3CCN(c4ccc5c(=O)c(C(=O)O)cn(C6CC6)c5c4)CC3)CC2)cc1
Staphylococcus aureus [4]
  MBC: ≥ 128 µg/mL
Staphylococcus aureus [5]
  MIC: < 0.016 µg/mL

## O=C(O)c1cn(C2CC2)c2c(Cl)c(N3CCN(Cn4nc(-c5ccccc5O)n(Cc5ccc(F)cc5)c4=S)CC3)c(F)cc2c1=O
[6]
  EC50 at 72 h: 50.5 µM

## O=C(O)c1c(=O)c2cc(F)c(N3CCOCC3)c3c2n2c(csc12)CN3
Staphylococcus aureus [7]
  MIC: 0.05 µg/mL (≈ 0.133 µM)

## O=C(O)c1cn(C2CC2)c2c(c1=O)C=C(F)C1N=NC(c3ccccc3F)=CN21 (centres undefined)
Staphylococcus aureus [8]
  Ratio: 32
Staphylococcus aureus [5]
  MIC: 0.25 µg/mL

## CNCC1CN(c2ccc3c(=O)c(C(=O)O)cn(C4CC4)c3c2C(C)=O)CC1(C)C (centres undefined)
Staphylococcus aureus [1]
  MIC: 0.015 µg/mL

## O=C(O)c1cn(C2CC2)c2cc(N3CCN(Cc4cccc(CN5CCN(c6ncc7c(=O)c(C(=O)O)cn(C8CC8)c7n6)CC5)c4)CC3)ccc2c1=O
Staphylococcus aureus [9]
  MIC: < 0.03 µg/mL
Staphylococcus aureus [8]
  Ratio: >16

## CC1(C)CN(c2ccc3c(=O)c(C(=O)O)cn(C4CC4)c3n2)CC1CN (centres undefined)
Staphylococcus aureus [1]
  MIC: 0.015 µg/mL

## COc1ccccc1O/N=C1/CCN(c2c(F)cc3c(=O)c(C(=O)O)cn(C4CC4)c3c2OC)CC1N (centres undefined)
Staphylococcus aureus [2]
  MIC: 0.008 µg/mL (≈ 0.0157 µM)

## O=C(O)c1cn(C2CC2)c2c(Cl)c(N3CCN(Cn4nc(-c5ccccc5O)n(-c5cc(Cl)cc(Cl)c5)c4=S)CC3)c(F)cc2c1=O
[6]
  EC50 at 72 h: 50.5 µM

## COc1cccc(O/N=C2/CCN(c3c(F)cc4c(=O)c(C(=O)O)cn(C5CC5)c4c3OC)CC2N)c1OC (centres undefined)
Staphylococcus aureus [2]
  MIC: 0.008 µg/mL (≈ 0.0148 µM)

## COc1c(N2CC/C(=N/Oc3ccc(F)cc3)C(N)C2)c(F)cc2c(=O)c(C(=O)O)cn(C3CC3)c12 (centres undefined)
Staphylococcus aureus [2]
  MIC: 0.008 µg/mL (≈ 0.016 µM)

## O=C(O)c1cn(C2CC2)c2c(c1=O)C=C(F)C1N=NC(c3ccc(F)cc3)=CN21 (centres undefined)
Staphylococcus aureus [8]
  Ratio: 32
Staphylococcus aureus [5]
  MIC: 0.25 µg/mL

## CC(=O)c1c(N2CC(CN)C(C)(C)C2)cc(N)c2c(=O)c(C(=O)O)cn(C3CC3)c12 (centres undefined)
Staphylococcus aureus [1]
  MIC: 0.015 µg/mL

## CCO/N=C1\CCN(c2c(F)cc3c(=O)c(C(=O)O)cn(C4CC4)c3c2F)CC1(C)CNC (centres undefined)
Staphylococcus aureus [3]
  MIC: 64 µg/mL (≈ 138 µM)

## NO/N=C(/CN1CCN(c2cc3c(cc2F)c(=O)c(C(=O)O)cn3C2CC2)CC1)c1cccs1
Staphylococcus aureus [10]
  MIC: 0.19 µg/mL (≈ 0.391 µM)
Staphylococcus aureus [11]
  MIC: 0.19 µg/mL (≈ 0.391 µM)
Staphylococcus aureus [12]
  Ratio: 4
Staphylococcus aureus [13]
  Ratio: 2
Staphylococcus aureus [14]
  Ratio: 2
Staphylococcus aureus [15]
  Ratio: 4

## CCn1cc(C(=O)O)c(=O)c2cc(F)c(N3CCN(C/C(=N/O)c4ccc(OC)cc4)CC3)c(F)c21
Staphylococcus aureus [16]
  Ratio: 24
Staphylococcus aureus [9]
  MIC: 0.2 µM

## CCNCC1CCN(c2c(F)cc3c(=O)c(C(=O)O)c4scc5n4c3c2NC5)C1 (centres undefined)
Staphylococcus aureus [7]
  MIC: 0.05 µg/mL (≈ 0.12 µM)

## CCO/N=C1\CCN(c2nc3c(cc2F)c(=O)c(C(=O)O)cn3C2CC2)CC1(C)CNC (centres undefined)
Staphylococcus aureus [3]
  MIC: 64 µg/mL (≈ 144 µM)

## CCO/N=C1\CCN(c2c(F)cc3c(=O)c(C(=O)O)cn(C4CC4)c3c2F)CC1(C)CN (centres undefined)
Staphylococcus aureus [9]
  MIC: 8 µg/mL

## CNCC1CN(c2ccc3c(=O)c(C(=O)O)cn(-c4ccc(F)cc4F)c3n2)CC1(C)C (centres undefined)
Staphylococcus aureus [1]
  MIC: 0.015 µg/mL

## CNC1CCCN(c2c(F)cc3c(=O)c(C(=O)O)cn(C4CC4)c3c2OC)C1 (centres undefined) [BALOFLOXACIN]
Staphylococcus aureus [2]
  MIC: 4 µg/mL (≈ 10.3 µM)

## O=C(O)c1cn(C2CC2)c2cc(N3CCNCC3)c(F)cc2c1=O [CIPROFLOXACIN]
Staphylococcus aureus [2]
  MIC: 64 µg/mL (≈ 193 µM)
Staphylococcus aureus [4]
  MBC: 0.031 µg/mL
Staphylococcus aureus [1]
  MIC: 0.06 µg/mL
Staphylococcus aureus [9]
  MIC: 0.5 µg/mL
Staphylococcus aureus [17]
  MIC: 0.25 µg/mL (≈ 0.754 µM)
Staphylococcus aureus [18]
  MIC: 32 µg/mL (≈ 96.6 µM)

## COc1c(N2CCNC(C)C2)c(F)cc2c(=O)c(C(=O)O)cn(C3CC3)c12 (centres undefined) [GATIFLOXACIN]
Staphylococcus aureus [19]
  MIC: 0.06 µg/mL (≈ 0.16 µM)
Staphylococcus aureus [1]
  MIC: 0.06 µg/mL
Staphylococcus aureus [9]
  MIC: 16 µg/mL

## CO/N=C1\CN(c2nc3c(cc2F)c(=O)c(C(=O)O)cn3C2CC2)CC1CN (centres undefined) [GEMIFLOXACIN]
Staphylococcus aureus [2]
  MIC: 4 µg/mL (≈ 10.3 µM)
Staphylococcus aureus [19]
  MIC: 0.06 µg/mL (≈ 0.154 µM)

## C[C@H]1COc2c(N3CCN(C)CC3)c(F)cc3c(=O)c(C(=O)O)cn1c23.C[C@H]1COc2c(N3CCN(C)CC3)c(F)cc3c(=O)c(C(=O)O)cn1c23.O [LEVOFLOXACIN]
Staphylococcus aureus [2]
  MIC: 32 µg/mL
Staphylococcus aureus [19]
  MIC: 0.06 µg/mL
Staphylococcus aureus [20]
  MIC: 0.5 µg/mL
Staphylococcus aureus [9]
  MIC: 16 µg/mL
Staphylococcus aureus [7]
  MIC: 1.56 µg/mL

## CCn1cc(C(=O)O)c(=O)c2cc(F)c(N3CCNCC3)cc21 [NORFLOXACIN]
Staphylococcus aureus [10]
  MIC: 0.78 µg/mL (≈ 2.44 µM)
Staphylococcus aureus [11]
  MIC: 0.78 µg/mL (≈ 2.44 µM)
Staphylococcus aureus [4]
  MBC: 4 µg/mL
Staphylococcus aureus [21]
  MIC: 8 µg/mL (≈ 25.1 µM)
Staphylococcus aureus [5]
  MIC: < 0.016 µg/mL

## CC1COc2c(N3CCN(C)CC3)c(F)cc3c(=O)c(C(=O)O)cn1c23 (centres undefined) [OFLOXACIN]
Staphylococcus aureus [7]
  MIC: 1.56 µg/mL (≈ 4.32 µM)

## CCn1cc(C(=O)O)c(=O)c2cc(F)c(N3CCN(C)CC3)cc21 [PEFLOXACIN]
Staphylococcus aureus [7]
  MIC: 1.56 µg/mL (≈ 4.68 µM)
